{
  "source": "paper PMC7707092",
  "about": "“Discovery and characterization of ORM‐11372, a novel inhibitor of the sodium‐calcium exchanger with positive inotropic activity” (British Journal of Pharmacology, 2020)",
  "test_system": "healthy rats",
  "assay": "In vivo haemodynamics in healthy rats (supplement)",
  "design": "species or system rat",
  "source_text": "In vivo haemodynamics in healthy rats\nExperimental Animals and General Study Protocol\nRat was selected to the study as it is the most widely used rodent species in the toxicology studies performed for the small molecules during the drug development. […]\nAll animal experiments were made according to European Community Guidelines for the use of experimental animals and approved by Finnish National Animal Experiment Board. All studies complied with the ARRIVE guidelines, (NC3Rs Reporting Guidelines Working Group, 2010).\nSpecific pathogen free animals were housed in half -barrier rooms where special protecting clothing for personnel was required. Animal rooms were cleaned regularly 3 times per week and cages and bottles were […]\nchanged regular intervals once a week. Temperature was maintained at 22 ± 2°C and humidity at 55 ± 15%.\nLight-dark cycle was lights on from 06.00 to 20.00h.\nMale Sprague-Dawley rats (Harlan, Netherlands B.V.) were housed in polycarbonate cages (Makrolon® IV with stainless steel wire mesh lids). Maximally 5 rats were housed per cage with aspen chip bedding (Tapvei Ky, Kaavi, Finland). Rats had free access to water (twice filtered, Espoon Vesi) and rodent diet (SDS RM1\n(P) SQC pelleted diet, Special Diet Services Ltd, Witham, England). Acclimation period before experiments was at least 5 days. Healthy 10-12 weeks aged weighing 300-400 g rats were randomized to ORM-11372, dobutamine or vehicle group.\nAt the end of the haemodynamic experiments, rats were terminated with an overdose of pentobarbital.\nAnesthesia and ventilation\nRats were anaesthetised with isoflurane (2.25-2.5 %, Baxter) in carbogen (95 % O2 and 5 % CO2) and nitrous oxide (1:1) using a small rodent ventilator (Ugo Basile 7025, ~10 ml/kg, 60 strokes/min). The rats were infused with 0.9 % NaCl in […] at the stabilization and baseline level. Animals were placed on a heating table (+38°C). Tracheas were cannulated.\nSystemic blood (SP) and left ventricular pressures (LVP) were measured with pressure transducers (BP:\nIsotec, Hugo Sachs Elektronic, Germany; LVP: Mikro-Tip transducer SPR-249, Millar Instruments, USA). The signal was amplified (DC-bridge amplifier type 660, Hugo Sachs Elektronik, Germany), digitised (I/O connector block type SCB-68, National Instruments, USA), recorded and analysed (IHME 1.0.9, Fision Ltd, Finland). Left ventricular inotropic effect (LV +dP/dtmax) and relaxation (LV -dP/dtmin) and heart rate (HR) were analysed from LVP signal.\nBlood sampling for the evaluation of plasma levels of the drug\nAt the end of each infusion, the blood samples (300-500 µl) were taken into chilled EDTA polypropylene tube (CapiJect®, Terumo) and centrifuged (4000 rpm, 10 min, at 4°C). Plasma was immediately frozen in polypropylene tubes and stored at –20°C. ORM-11372 and dobutamine were extracted from plasma samples using a liquid–liquid extraction and analysed using liquid chromatography–tandem mass spectrometry (Agilent Technologies series 1100 liquid chromatographic system and a Sciex LC-MS/MS API 4000 mass spectrometry). The lower limit of quantification for total plasma concentrations were 32.0 and 5.00 ng/ml from total for ORM-11372 and dobutamine, respectively. […]\nThe effects of dobutamine on blood pressure varies partially due to the use of racemate as active ingredient in the pharmaceutical formulation. (-)-dobutamine is α1-agonist and therefore causes increases in cardiac output and peripheral resistance. (+)-dobutamine acts via β1- and β2-adrenoceptors which leads to increase in heart rate and reduction in blood pressure 16.\nFigure S20 Haemodynamics in healthy rats\nEffects of ORM-11372 and dobutamine on haemodynamics in isoflurane anesthetized 10-12 weeks aged male Sprague-Dawley rats (Harlan, Netherlands B.V.) weighing 300-400 g. Shown are mean ± SEM and individual effects on the left ventricular contractility (LV+dP/dtmax, panel A), relaxation (LV-dP/dtmax, panel B), heart rate (panel C), and systolic arterial blood pressure (SAP, paned D). […]",
  "key": {"[1]": {"details": "4 nM up to 92 nM free plasma concentration"}},
  "data": [
    {"compound": "Nc1cccc(-c2ccc(CNc3ccc(F)cc3)o2)c1", "note": "[ORM‐11372]", "values": [
      {"measurement": "absolute maximum positive inotropic effect", "result": 44, "unit": "%"},
      {"measurement": "free plasma concentration achieving 25% positive inotropic effect", "result": "36 ± 1.4", "unit": "nM"},
      {"measurement": "free plasma concentration at absolute maximum positive inotropic effect", "result": "0.351 ± 0.092", "unit": "µM"},
      {"measurement": "free plasma concentration at maximum inotropic effect without any other effects", "result": "0.092 ± 0.008", "unit": "µM"},
      {"measurement": "free plasma concentration at the 10±2% (ORM-11372) / 16±3% (dobutamine) inotropic effect", "result": "0.004 ± 0.0003", "unit": "µM"},
      {"measurement": "left ventricular relaxation", "setting": "[1]", "result": "did not affect"},
      {"measurement": "systolic blood pressure", "setting": "[1]", "result": "did not affect"},
      {"measurement": "improvement of relaxation (tendency)", "setting": "36 nM free plasma", "result": "7.5±4.5", "unit": "%"},
      {"measurement": "effective free concentration range in rat plasma", "setting": "Figure S20", "result": "4 to 300", "unit": "nM"},
      {"measurement": "maximum inotropic effect without any other effects", "setting": "at 92±8 nM free plasma", "result": "34±5", "unit": "%"},
      {"measurement": "positive inotropic effect", "setting": "at free plasma concentration 4±0.3 nM (ORM-11372), 16±0.8 nM (dobutamine)", "result": "10±2", "unit": "%"},
      {"measurement": "decrease in heart rate", "setting": "free plasma concentrations higher than 240 nM", "result": "-7 to -12", "unit": "%"},
      {"measurement": "relaxation", "setting": "high concentration (≥240 nM)", "result": "impaired relaxation"},
      {"measurement": "heart rate", "setting": "up to 240 nM free plasma concentration", "result": "no effect"}
    ]}
  ]
}
